From ChEMBL document CHEMBL5465560, “Selectivity Literature for EUbOPEN Chemogenomic Library” (2024)

Columns and labels:
[1] = molecular target: T1, Serine/threonine-protein kinase Nek1 (Homo sapiens) (UniProt Q96PY6); experiment: Selectivity interaction (KinomeScan (DiscoverX)) EUB0000229b NEK1; settings: at 10 µM
T1 sequence (whole entry): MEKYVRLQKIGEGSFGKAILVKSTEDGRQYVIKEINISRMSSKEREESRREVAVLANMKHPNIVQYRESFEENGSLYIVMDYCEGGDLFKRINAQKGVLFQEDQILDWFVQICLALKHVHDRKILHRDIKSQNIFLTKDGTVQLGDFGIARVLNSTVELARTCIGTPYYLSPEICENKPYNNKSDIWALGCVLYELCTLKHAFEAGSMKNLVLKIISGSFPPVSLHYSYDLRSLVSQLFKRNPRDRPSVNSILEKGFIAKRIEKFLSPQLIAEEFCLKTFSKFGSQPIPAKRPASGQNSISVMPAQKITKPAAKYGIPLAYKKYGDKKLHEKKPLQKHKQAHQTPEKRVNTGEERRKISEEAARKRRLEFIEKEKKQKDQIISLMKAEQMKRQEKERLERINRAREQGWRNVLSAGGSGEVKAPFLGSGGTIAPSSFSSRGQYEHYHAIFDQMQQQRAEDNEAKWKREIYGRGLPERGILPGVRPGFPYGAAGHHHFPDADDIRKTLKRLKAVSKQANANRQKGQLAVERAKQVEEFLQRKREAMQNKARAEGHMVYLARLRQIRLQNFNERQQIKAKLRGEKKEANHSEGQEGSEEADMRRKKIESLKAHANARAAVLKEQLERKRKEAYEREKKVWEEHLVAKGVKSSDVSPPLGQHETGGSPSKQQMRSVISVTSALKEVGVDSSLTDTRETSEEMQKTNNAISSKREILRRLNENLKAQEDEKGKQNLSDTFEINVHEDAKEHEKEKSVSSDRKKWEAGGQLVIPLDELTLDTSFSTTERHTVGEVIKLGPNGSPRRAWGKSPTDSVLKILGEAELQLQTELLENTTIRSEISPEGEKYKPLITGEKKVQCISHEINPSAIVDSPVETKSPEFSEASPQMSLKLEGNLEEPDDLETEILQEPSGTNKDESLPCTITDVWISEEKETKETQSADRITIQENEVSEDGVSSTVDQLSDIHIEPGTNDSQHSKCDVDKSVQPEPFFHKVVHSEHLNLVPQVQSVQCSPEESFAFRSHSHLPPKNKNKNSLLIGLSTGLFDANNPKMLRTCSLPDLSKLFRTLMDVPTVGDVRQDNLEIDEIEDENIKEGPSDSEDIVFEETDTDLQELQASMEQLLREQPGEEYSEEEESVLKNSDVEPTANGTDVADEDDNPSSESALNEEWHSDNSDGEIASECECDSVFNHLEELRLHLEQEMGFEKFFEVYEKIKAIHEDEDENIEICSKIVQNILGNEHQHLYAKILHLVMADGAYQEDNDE

[2] = molecular target: Microtubule-associated serine/threonine-protein kinase 1 (Homo sapiens) (UniProt Q9Y2H9); experiment: Selectivity interaction (KinomeScan (DiscoverX)) EUB0000595a MAST1; settings: at 10 µM
[3] = molecular target: Histone-lysine N-methyltransferase 2A (Homo sapiens) (UniProt Q03164); settings: at 1 µM
[4] = molecular target: Cyclin-dependent kinase 13 (Homo sapiens, UniProt Q14004); experiment: Selectivity interaction (KinomeScan (DiscoverX)) EUB0000045b CDK13
[5] = molecular target: Serine/threonine-protein kinase MRCK gamma (Homo sapiens) (UniProt Q6DT37); experiment: Selectivity interaction (KinomeScan (DiscoverX)) EUB0001079a CDC42BPG; settings: at 1 µM
[6] = molecular target: T2, Mitogen-activated protein kinase kinase kinase 2 (Homo sapiens) (UniProt Q9Y2U5); settings: at 10 µM
T2 sequence (whole entry): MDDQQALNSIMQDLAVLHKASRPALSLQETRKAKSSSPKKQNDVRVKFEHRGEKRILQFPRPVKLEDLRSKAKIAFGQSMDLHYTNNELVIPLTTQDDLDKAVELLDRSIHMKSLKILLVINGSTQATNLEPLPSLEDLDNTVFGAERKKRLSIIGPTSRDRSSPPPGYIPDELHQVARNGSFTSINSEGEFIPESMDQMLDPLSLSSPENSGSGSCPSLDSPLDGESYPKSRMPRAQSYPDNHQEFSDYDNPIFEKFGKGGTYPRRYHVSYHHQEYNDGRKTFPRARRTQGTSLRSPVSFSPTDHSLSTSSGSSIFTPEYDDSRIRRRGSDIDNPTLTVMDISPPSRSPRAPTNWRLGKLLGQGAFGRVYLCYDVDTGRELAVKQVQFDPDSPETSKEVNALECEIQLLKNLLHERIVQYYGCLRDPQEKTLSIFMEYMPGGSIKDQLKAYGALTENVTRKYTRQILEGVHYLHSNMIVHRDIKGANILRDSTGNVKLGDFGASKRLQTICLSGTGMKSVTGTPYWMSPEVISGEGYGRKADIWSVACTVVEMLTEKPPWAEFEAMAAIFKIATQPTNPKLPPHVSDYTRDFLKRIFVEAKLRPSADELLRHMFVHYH

Histamine H1 receptor = Histamine H1 receptor (Homo sapiens, UniProt P35367); experiment: Selectivity interaction (Eurofins CEREP Diversity Profile (receptors and ion channels)) EUB0000279b HRH1; settings: at 10 µM
[7] = molecular target: MAP/microtubule affinity-regulating kinase 3 (Homo sapiens) (UniProt P27448); experiment: Selectivity interaction (Kinase panel (DSF assay)) EUB0001558a MARK3
[8] = molecular target: T3, Serine/threonine-protein kinase STK11 (Homo sapiens) (UniProt Q15831); experiment: Selectivity interaction (KinomeScan (DiscoverX)) EUB0000618a STK11; settings: at 10 µM
T3 sequence (whole entry): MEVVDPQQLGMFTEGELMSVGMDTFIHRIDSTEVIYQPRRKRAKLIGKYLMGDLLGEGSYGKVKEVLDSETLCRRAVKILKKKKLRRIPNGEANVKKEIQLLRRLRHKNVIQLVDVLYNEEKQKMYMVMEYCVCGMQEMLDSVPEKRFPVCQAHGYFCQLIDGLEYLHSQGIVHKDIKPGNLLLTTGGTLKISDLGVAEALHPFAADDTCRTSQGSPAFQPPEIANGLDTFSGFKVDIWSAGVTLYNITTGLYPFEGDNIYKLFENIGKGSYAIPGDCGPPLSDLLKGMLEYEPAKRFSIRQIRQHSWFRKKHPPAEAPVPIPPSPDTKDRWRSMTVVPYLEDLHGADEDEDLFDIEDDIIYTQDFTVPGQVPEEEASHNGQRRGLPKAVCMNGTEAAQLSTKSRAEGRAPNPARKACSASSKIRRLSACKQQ

[9] = molecular target: Mitogen-activated protein kinase kinase kinase kinase 1 (Homo sapiens) (UniProt Q92918); experiment: Selectivity interaction (ActivX KiNativ screen (kinase selectivity in THP-1 cell lysates)) EUB0000639a MAP4K1; format: subcellular; settings: lysate, at 1 µM
Mitogen-activated protein kinase kinase kinase kinase 1 (Homo sapiens), sequence (Q92918 whole entry, looked up): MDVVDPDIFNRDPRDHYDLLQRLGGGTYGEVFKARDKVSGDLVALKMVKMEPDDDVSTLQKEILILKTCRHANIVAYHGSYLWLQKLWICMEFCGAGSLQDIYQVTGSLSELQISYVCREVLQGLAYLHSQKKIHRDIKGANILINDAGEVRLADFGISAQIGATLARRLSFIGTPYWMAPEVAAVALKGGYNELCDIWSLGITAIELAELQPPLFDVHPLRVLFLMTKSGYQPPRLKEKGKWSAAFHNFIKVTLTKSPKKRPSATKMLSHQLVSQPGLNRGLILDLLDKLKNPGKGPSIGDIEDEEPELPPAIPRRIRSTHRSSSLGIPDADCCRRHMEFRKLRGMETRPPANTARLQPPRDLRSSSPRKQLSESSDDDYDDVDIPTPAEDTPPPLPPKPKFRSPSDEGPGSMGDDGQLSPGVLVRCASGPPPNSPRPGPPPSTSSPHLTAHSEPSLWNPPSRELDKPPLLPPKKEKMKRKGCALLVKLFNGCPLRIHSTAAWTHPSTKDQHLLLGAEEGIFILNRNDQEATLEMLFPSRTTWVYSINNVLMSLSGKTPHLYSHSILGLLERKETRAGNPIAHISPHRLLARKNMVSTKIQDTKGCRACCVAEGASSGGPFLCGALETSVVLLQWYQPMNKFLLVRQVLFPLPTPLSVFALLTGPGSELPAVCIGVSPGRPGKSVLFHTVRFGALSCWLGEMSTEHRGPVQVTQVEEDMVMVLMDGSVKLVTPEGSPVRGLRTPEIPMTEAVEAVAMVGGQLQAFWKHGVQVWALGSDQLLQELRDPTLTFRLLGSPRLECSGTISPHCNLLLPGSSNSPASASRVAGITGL

Cyclin-dependent kinase 13, sequence (Q14004 whole entry, looked up): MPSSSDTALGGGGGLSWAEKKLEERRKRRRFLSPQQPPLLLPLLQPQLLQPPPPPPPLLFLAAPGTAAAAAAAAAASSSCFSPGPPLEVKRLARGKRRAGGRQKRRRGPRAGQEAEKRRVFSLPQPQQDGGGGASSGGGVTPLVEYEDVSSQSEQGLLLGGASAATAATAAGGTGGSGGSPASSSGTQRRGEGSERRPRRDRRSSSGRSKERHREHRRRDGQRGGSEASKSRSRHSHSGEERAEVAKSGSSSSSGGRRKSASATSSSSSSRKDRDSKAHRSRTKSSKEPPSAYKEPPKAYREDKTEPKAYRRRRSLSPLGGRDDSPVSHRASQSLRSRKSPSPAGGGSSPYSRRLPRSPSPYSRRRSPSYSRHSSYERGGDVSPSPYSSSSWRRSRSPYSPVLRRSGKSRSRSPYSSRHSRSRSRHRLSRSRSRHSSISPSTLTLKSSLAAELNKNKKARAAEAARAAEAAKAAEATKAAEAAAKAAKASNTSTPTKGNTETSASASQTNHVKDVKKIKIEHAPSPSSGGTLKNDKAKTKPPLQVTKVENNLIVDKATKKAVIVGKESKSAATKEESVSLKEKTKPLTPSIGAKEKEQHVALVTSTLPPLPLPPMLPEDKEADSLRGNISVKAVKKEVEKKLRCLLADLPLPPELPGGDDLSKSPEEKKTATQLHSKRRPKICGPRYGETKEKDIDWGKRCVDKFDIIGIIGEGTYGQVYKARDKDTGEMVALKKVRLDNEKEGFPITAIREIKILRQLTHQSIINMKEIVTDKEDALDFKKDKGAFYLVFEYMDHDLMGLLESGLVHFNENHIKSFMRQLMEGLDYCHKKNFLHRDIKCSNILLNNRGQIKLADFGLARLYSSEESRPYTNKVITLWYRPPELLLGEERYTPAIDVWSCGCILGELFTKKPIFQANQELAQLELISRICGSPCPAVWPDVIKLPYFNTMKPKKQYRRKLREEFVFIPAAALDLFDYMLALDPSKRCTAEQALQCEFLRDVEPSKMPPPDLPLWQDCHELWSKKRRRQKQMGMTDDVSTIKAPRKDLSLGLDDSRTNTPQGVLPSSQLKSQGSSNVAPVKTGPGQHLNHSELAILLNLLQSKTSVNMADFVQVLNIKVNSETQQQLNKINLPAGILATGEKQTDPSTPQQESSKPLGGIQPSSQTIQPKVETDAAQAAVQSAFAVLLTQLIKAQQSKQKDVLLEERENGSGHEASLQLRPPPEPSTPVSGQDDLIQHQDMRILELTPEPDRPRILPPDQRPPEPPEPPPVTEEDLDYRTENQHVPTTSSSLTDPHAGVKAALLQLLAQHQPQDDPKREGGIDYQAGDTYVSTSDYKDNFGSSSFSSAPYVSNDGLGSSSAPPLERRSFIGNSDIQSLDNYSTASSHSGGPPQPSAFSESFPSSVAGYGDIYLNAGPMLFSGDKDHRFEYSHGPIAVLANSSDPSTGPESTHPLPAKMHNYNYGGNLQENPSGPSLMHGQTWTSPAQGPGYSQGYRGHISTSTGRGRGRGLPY
Microtubule-associated serine/threonine-protein kinase 1 (Homo sapiens), sequence (Q9Y2H9 whole entry, looked up): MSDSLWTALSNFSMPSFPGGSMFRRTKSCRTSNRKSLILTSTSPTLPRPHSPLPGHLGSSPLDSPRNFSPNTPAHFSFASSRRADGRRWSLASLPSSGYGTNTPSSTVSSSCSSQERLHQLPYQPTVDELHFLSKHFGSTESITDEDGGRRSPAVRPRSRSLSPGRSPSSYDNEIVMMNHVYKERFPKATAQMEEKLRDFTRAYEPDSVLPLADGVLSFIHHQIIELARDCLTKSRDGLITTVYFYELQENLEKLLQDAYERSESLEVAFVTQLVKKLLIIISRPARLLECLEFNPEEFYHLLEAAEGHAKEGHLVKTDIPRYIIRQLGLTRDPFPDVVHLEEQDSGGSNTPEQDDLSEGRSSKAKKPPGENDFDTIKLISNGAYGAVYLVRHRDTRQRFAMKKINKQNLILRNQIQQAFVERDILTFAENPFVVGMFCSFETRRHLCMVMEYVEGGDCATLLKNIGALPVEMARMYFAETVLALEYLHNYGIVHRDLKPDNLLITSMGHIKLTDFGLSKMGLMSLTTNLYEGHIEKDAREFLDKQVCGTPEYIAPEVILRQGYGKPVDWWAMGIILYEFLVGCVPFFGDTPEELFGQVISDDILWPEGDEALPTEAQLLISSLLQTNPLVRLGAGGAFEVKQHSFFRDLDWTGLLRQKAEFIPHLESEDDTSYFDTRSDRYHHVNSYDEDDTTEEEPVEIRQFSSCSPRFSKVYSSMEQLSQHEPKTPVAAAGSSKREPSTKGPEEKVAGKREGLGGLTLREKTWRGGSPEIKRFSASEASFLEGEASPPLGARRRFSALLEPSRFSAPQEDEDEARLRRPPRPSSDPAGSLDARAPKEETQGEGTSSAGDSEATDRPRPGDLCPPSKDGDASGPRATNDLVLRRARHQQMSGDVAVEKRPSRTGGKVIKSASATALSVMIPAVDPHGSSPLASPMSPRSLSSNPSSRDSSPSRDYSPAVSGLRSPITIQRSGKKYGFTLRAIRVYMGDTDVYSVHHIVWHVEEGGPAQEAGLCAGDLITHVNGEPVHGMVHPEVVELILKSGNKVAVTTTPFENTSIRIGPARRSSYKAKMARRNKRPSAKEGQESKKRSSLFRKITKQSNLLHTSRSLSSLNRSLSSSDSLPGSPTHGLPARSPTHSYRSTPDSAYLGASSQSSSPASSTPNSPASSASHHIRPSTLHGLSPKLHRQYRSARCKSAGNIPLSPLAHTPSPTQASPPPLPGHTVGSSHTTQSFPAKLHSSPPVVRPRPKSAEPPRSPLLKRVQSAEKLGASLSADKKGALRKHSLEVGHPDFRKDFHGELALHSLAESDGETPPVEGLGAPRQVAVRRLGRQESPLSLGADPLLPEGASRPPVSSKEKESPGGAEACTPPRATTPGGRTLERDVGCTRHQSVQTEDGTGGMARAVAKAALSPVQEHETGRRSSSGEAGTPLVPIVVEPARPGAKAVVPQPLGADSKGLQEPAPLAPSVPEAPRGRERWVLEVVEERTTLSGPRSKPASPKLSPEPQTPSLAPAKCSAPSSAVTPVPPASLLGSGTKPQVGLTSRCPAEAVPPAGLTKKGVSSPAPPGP
Histamine H1 receptor, sequence (P35367 whole entry): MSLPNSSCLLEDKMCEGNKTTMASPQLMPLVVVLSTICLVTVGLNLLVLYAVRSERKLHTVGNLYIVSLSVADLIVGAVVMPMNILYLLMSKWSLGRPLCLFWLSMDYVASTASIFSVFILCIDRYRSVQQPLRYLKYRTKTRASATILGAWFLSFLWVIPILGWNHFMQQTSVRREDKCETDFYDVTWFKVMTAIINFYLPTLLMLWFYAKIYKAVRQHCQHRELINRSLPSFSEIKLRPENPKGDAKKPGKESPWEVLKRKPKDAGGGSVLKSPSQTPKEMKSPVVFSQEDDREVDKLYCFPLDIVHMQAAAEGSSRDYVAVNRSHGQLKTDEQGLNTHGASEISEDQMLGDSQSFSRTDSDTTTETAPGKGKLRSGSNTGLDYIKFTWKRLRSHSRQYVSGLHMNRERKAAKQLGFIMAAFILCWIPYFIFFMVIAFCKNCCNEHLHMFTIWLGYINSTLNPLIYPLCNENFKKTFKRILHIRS

Structure (SMILES): COc1cc(N(C)c2ccnc3ccc(C(F)(F)F)cc23)cc(OC)c1OC
- % binding [1]: 78%

Structure (SMILES): COCC(=O)NC/C=C/c1ccc2ncnc(Nc3ccc(Oc4ccc(C)nc4)c(C)c3)c2c1 [CP-724714]
- % of control [2]: 100%

Structure (SMILES): CNCCN1CCC(c2cc(CN(C)C(=O)c3cccc(Oc4ccccc4)c3)ccn2)CC1
- % activity [3]: > 90%

Structure (SMILES): C=CC(=O)Nc1cc(-n2c(=O)ccc3cnc4ccc(-c5ccc(NS(C)(=O)=O)cc5)cc4c32)ccc1C
- % of control ([4]; at 1 µM): 100%
- % of control ([4]; at 10 µM): 100%

Structure (SMILES): Nc1cnc(N2CCc3cc(S(=O)(=O)Nc4c(F)cc(Cl)cc4F)cc(N4CCCC4=O)c32)nc1 [TP-020n]
- % of control [5]: 100%

Structure (SMILES): Cc1cc([C@@H](C)Nc2ccccc2C(=O)O)c2nc(N3CCOCC3)cc(=O)n2c1 [AZD-6482]
- % of control [6]: 100%

Structure (SMILES): CC(=O)c1cc(-c2ccccc2OCC2CC2)c2ncccn12
- % of control (Histamine H1 receptor): 107%

Structure (SMILES): CC(C)(O)[C@H](F)CN1Cc2cc(NC(=O)c3cnn4cccnc34)c(N3CCOCC3)cc2C1=O
- dTM [7]: 1.9 K

Structure (SMILES): O[C@H]1CC[C@H](Nc2ncc3nc(Nc4c(F)cc(F)cc4F)n([C@H]4CCOC4)c3n2)CC1
- % of control [8]: 100%

Structure (SMILES): CC[C@@H]1[C@H](F)C(=O)N[C@@H]1COc1nccc2cc(C(N)=O)c(OC)cc12 [ZIMLOVISERTIB]
- % of inhibition [9]: -17.4%
